The values below come from article PMC10787358 (Science translational medicine, 2023).

Structures are written as SMILES.

The test system of experiment [1] is SARS-CoV-2 WT, Beta, Delta, Omicron BA.2. It is filed as cell-based. To be noted: UDCA 10 μM, ML364 4 μM, MS102 4 μM, 48 h.
Experiment [2] relates to SARS-CoV-2 Beta and Delta variants. Type of experiment: cell-based.
The test system of the next experiment is SARS-CoV-2. More on the design: species or system hACE2 transgenic mice. The settings on record: mouse, in vivo.

For `Cc1ccc(S(=O)(=O)Nc2ccc(C(F)(F)F)cc2C(=O)Nc2nc(-c3ccc(Br)cc3)cs2)cc1` [MS102], in experiment [1], the “inhibition of infection of Calu-3 cells by authentic SARS-CoV-2 (TCID50)” value is “superior activity”. Take `C[C@H](CCC(=O)O)[C@H]1CC[C@H]2[C@@H]3[C@@H](O)C[C@@H]4C[C@H](O)CC[C@]4(C)[C@H]3CC[C@]12C` [UDCA, ursodeoxycholic acid]: the “inhibition of infection of Calu-3 cells by authentic SARS-CoV-2 (TCID50)” value in experiment [1] is listed as “exhibited efficacy”.

Take `Cc1ccc(S(=O)(=O)Nc2cc(C(F)(F)F)ccc2C(=O)Nc2nc(-c3ccccc3)cs2)cc1` [ML364]: the “inhibition of authentic SARS-CoV-2 variants” value in experiment [2] is “broad inhibition”. In addition, the “therapeutic effectiveness against SARS-CoV-2 infection” value in the experiment with SARS-CoV-2 was “substantial therapeutic potential”.
